Legend:
[1] = tested on: human precision-cut liver slices (PCLS); assay: Transcriptomics of human PCLS: differentially regulated genes; type: cell-based; details: fold change of 1.5 and adjusted p value 0.05, 24 h, 60 μM bile acid mix
Description: (§1) Precision-cut liver slices of 5 mm diameter and 250 μm thickness were prepared (de Graaf et al. [2010]). At this thickness, full penetration of substrates has been shown. PCLS were made using the Krumdieck tissue slicer (Alabama R&D, Munford, AL, USA) in ice-cold Krebs buffer at pH 7.42, enriched with glucose to a final concentration of 25 mM, saturated with carbogen (95 % O2/5 % CO2). Immediately after the slices were made, they were placed in ice-cold University of Wisconsin organ preservation solution (UW, Dupont Critical Care, Waukegan, IL, USA) and stored on ice until the beginning of the experiment. Slices were pre-incubated individually in 12-well plates in 1.3 ml of Williams Medium E with glutamax-1 (Gibco, Invitrogen, Paisley, Scotland) supplemented with 25 mM D-glucose and 50 μg/ml gentamycin (Gibco, Invitrogen, Paisley, Scotland). In the incubator (Sanyo CO2/O2 Incubator, PANASONIC, Secaucus, NJ, USA), the plates were gently shaken (90 times/min) for 1 h under 80 % O2 and 5 % CO2 atmosphere at 37 °C. This pre-incubation allows the slices to restore their ATP levels. […] The plates were incubated under the same conditions for 24 h. All incubation conditions were carried out in triplicate. Each experiment was performed in slices of 6 different human livers (Table 1). Slices were harvested for ATP assay in 100 mM Tris buffer with 2 mM EDTA and for RNA isolation in RNAlater. The bile acid mix was added to the medium in order to create an environment similar to the physiological concentration in the portal vein. The composition of the serum bile acids was according to Scherer et al. ([2009]). Pilot experiments were performed to find out the non-toxic concentration of the bile acid mix.
(§2) Maxwell® 16 LEV Total RNA purification kit (Promega, The Netherlands) with Maxwell® 16 LEV Instrument was used to isolate RNA from the samples. Immediately after isolation, the RNA quality was assessed by measuring the 260/280 and 260/230 ratios, and the concentration was measured with the ND-1000 spectrophotometer (Fisher Scientific, Landsmeer, The Netherlands). The quality (RIN value) and quantity of the RNA were determined by high-throughput Caliper GX LabChip RNA kit (Caliper).
(§3) Ambion Illumina Total Prep RNA kit was used to transcribe 300 ng RNA to cRNA according to the manufacturer’s instructions. A total of 750 ng of cRNA was hybridized at 58 °C for 16 h to the Illumina HumanHT-12 v4 Expression BeadChips. BeadChips were scanned using Iscan software, and IDAT files were generated (Illumina, San Diego, CA, USA).
(§4) GenomeStudio software (Illumina) was used to read the IDAT files and generate raw expression values. The ArrayAnalysis web service (www.arrayanalysis.org/) was used for further preprocessing the data, which uses lumi R package (Eijssen et al. [2013]). Raw gene expression data were background-corrected (bgAdjust), variance-stabilized (VST) and normalized by quantile normalization. After normalization, the data were corrected for batch differences owing to RNA isolation and hybridization using the ComBat method implemented in the swamp package in R (Lauss et al. [2013]). Differentially expressed genes in slices exposed to the cholestatic drugs in the presence of bile acids versus the slices exposed to vehicle (DMSO) in the presence of bile acids were identified using the unpaired moderated t test in the limma package (Ritchie et al. [2015]). Genes that are regulated with a criterion of fold change of 1.5 (≤ or ≥1.5), and FDR-corrected p value ≤0.05 (Benjamini and Hochberg method) were chosen for pathway analysis. To compare our data with the scarcely available human in vivo data, human in vivo late-stage cholestasis data were downloaded from the Gene Expression Omnibus database (GSE46960).

[2] = tested on: Genes involved in unfolded protein response (UPR); assay: Microarray gene expression in human PCLS exposed to cholestatic drugs: unfolded protein response genes; type: cell-based; details: 100 μM; 24 h; 60 μM bile acid mix
Description: as §1, §2, §3, §4

[3] = C max in systemic blood of adult patients after a therapeutic dose; details: highest toxic concentration tested in human PCLS vs C max in adult patients
[4] = tested on: Genes involved in hepatic cholestasis pathway; assay: Microarray gene expression in human PCLS exposed to cholestatic drugs: hepatic cholestasis pathway genes; details: 100 μM; 24 h; 60 μM bile acid mix
Description: as §1, §2, §3, §4

[5] = tested on: Genes involved in the FXR pathway; assay: Microarray gene expression in human PCLS exposed to cholestatic drugs: FXR pathway genes; details: 100 μM; 24 h; 60 μM bile acid mix
Description: as §1, §2, §3, §4

[6] = adult patients, therapeutic dose, systemic blood; no reference given; cited from earlier work

## C[C@]12CCC(=O)C=C1CC[C@@H]1[C@@H]2CC[C@@]2(C)[C@H]1CC[C@]2(C)O [MT, methyl testosterone]
[1]; 25 μM
  Number of regulated genes: 11
[1]; 50 μM
  Number of regulated genes: 38
[1]; 100 μM
  Number of regulated genes: 233
[2]
  ATF4 fold change: 1.2
  DDIT3 (CHOP) fold change: 2.9
  DNAJB9 fold change: 1.3
  ERN1 fold change: 3.0
  HSPA9 fold change: 1.3
  HSPH1 fold change: 1.7
  INSIG1 fold change: −1.5
  NFE2L2 fold change: −1.1
  SYVN1 fold change: 1.1
[3]
  toxic concentration used in PCLS study relative to C max: ~ 770 × C max
[4]
  ABCB4 fold change: −3.6
  ABCB11 fold change: −1.2
  ABCC3 fold change: −1.8
  ABCG5 fold change: −1.7
  ABCG8 fold change: −1.4
  CYP8B1 fold change: 1.1
  CYP27A1 fold change: −1.5
  GCGR fold change: −1.1
  IL1B fold change: −1.2
  IL1RL1 fold change: 3.5
  IL1RN fold change: 1.9
  IRAK2 fold change: 1.0
  JUN fold change: 1.6
  NR0B2 fold change: 1.0
  NR1H3 fold change: −1.3
  NR1H4 fold change: −1.1
  PPRC1 fold change: 1.1
  RXRA fold change: −1.7
  SLC22A7 fold change: −1.1
  TNFRSF1B fold change: 1.1
[5]
  ABCB4 fold change: −3.6
  ABCB11 fold change: −1.7
  ABCG5 fold change: −1.6
  ABCG8 fold change: −1.4
  APOC2 fold change: 1.0
  APOC4 fold change: −1.4
  APOF fold change: 1.1
  BAAT fold change: −1.4
  C3 fold change: −2.0
  CYP8B1 fold change: 1.1
  CYP27A1 fold change: −1.5
  FASN fold change: 1.2
  FBP1 fold change: 1.2
  FETUB fold change: −1.3
  FGA fold change: 1.9
  ITIH4 fold change: −1.4
  KNG1 fold change: −1.7
  NR0B2 (SHP) fold change: 1.3
  NR1H3 (LXR) fold change: −1.0
  NR1H4 (FXR) fold change: −1.2
  PON1 fold change: 1.1
  RXRA fold change: −1.7
  SCARB1 fold change: −1.6
  SDC1 fold change: −1.8
  SERPINF2 fold change: −1.2
  SLC22A7 fold change: −1.5
  SLC51B fold change: −2.8
  SULT2A1 fold change: 1.7
[6]
  Cmax: 130 nM

## C#C[C@]1(O)CC[C@H]2[C@@H]3CCc4cc(O)ccc4[C@H]3CC[C@@]21C [EE, ethinyl estradiol]
[1]; 25 μM
  Number of regulated genes: 0
[1]; 50 μM
  Number of regulated genes: 5
[1]; 75 μM
  Number of regulated genes: 63
[6]
  Cmax: 8.2 nM

From PMC5316400, “Validation of precision-cut liver slices to study drug-induced cholestasis: a transcriptomics approach” (Archives of Toxicology, 2016)
